Assay results taken from EP4745137A1 (Gluetacs Therapeutics (Shanghai) Co., Ltd., priority 2023, dated 2025).
Values belong to the compound of their own block, whether it stands above or below them.

Assays:
[1] = biological target: T1, human Cereblon WT GST-tagged protein (Homo sapiens, UniProt Q96SW2); test: CRBN-binding affinity by HTRF (CEREBLON BINDING kit); settings: HTRF inhibitory activity, CEREBLON BINDING kit; read-out: HTRF IC50
T1 construct: purchased CISBIO 64BDCRBNPEH
Experimental: The CEREBLON BINDING kits (specification: 10,000 tests; product number: Catalog # 64BDCRBNPEH; CISBIO company) was used to determine the CRBN binding ability of the compounds to be tested through a HTRF method (homogeneous time-resolved fluorescence). The specific methods are as follows: • 1. […] Specifically, diluent #9 (1X) solution was used as the diluent, and multiple concentration gradients were set. […] Then, 2.5 µL of human Cereblon WT GST-tagged protein solution was added to each well. Finally, 5 µL of the thoroughly mixed Thalidomide-Re reagent and GST Eu antibody working solution were added to each of the aforementioned wells. […] The blank control wells were sequentially added with 2.5 µL of diluent #9 (1X) solution, 2.5 µL of binding buffer, and 5 µL of thoroughly mixed Thalidomide-Re reagent and GST Eu antibody working solution. • 4.

IKZF1 = biological target: T2, IKZF1 (Homo sapiens, UniProt Q13422+Q96SW2); test: Western-blot assay of substrate protein degradation in hPBMCs, IKZF1; assay type: cell-based; settings: 24 hours of compound treatment, 50 nM and 500 nM tested (concentration behind the class not stated)
T2 construct: endogenous in cells; host or cells: hPBMCs (Milecell Biotechnologies)

GSPT1 = biological target: T3, GSPT1 (Homo sapiens, UniProt P15170+Q96SW2); test: Western-blot assay of substrate protein degradation in hPBMCs, GSPT1; assay type: cell-based; settings: 24 hours of compound treatment, 50 nM and 500 nM tested (concentration behind the class not stated)
T3 construct: endogenous in cells; host or cells: hPBMCs (Milecell Biotechnologies)

IKZF2 = biological target: T4, IKZF2 (Homo sapiens, UniProt Q96SW2+Q9UKS7); test: Western-blot assay of substrate protein degradation in hPBMCs, IKZF2; assay type: cell-based; settings: 24 hours of compound treatment, 50 nM and 500 nM tested (concentration behind the class not stated)
T4 construct: endogenous in cells; host or cells: hPBMCs (Milecell Biotechnologies)

CK1α = biological target: T5, CK1α (Homo sapiens, UniProt P48729+Q96SW2); test: Western-blot assay of substrate protein degradation in hPBMCs, CK1α; assay type: cell-based; settings: 24 hours of compound treatment, 50 nM and 500 nM tested (concentration behind the class not stated)
T5 construct: endogenous in cells; host or cells: hPBMCs (Milecell Biotechnologies)

WEE1 = biological target: T6, WEE1 (Homo sapiens, UniProt P30291+Q96SW2); test: Western-blot assay of substrate protein degradation in hPBMCs, WEE1; assay type: cell-based; settings: 24 hours of compound treatment, 50 nM and 500 nM tested (concentration behind the class not stated)
T6 construct: endogenous in cells; host or cells: hPBMCs (Milecell Biotechnologies)

IKZF3 = biological target: T7, IKZF3 (Homo sapiens, UniProt Q96SW2+Q9UKT9); test: Western-blot assay of substrate protein degradation in hPBMCs, IKZF3; assay type: cell-based; settings: 24 hours of compound treatment, 50 nM and 500 nM tested (concentration behind the class not stated)
T7 construct: endogenous in cells; host or cells: hPBMCs (Milecell Biotechnologies)
T7 sequence (Q9UKT9 whole entry): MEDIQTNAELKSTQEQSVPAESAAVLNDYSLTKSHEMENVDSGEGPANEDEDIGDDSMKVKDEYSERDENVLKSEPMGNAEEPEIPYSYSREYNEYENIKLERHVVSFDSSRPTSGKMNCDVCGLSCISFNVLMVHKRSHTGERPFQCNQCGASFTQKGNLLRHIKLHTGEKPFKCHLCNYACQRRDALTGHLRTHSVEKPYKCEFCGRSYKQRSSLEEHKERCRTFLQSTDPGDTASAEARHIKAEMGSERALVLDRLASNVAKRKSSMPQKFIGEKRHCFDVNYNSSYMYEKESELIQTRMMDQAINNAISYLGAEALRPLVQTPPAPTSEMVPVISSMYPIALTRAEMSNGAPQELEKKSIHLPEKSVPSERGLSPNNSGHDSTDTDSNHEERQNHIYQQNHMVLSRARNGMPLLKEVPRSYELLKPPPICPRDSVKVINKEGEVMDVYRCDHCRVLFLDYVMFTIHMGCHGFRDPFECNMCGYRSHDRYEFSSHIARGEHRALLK
T7 sequence (Q96SW2 whole entry): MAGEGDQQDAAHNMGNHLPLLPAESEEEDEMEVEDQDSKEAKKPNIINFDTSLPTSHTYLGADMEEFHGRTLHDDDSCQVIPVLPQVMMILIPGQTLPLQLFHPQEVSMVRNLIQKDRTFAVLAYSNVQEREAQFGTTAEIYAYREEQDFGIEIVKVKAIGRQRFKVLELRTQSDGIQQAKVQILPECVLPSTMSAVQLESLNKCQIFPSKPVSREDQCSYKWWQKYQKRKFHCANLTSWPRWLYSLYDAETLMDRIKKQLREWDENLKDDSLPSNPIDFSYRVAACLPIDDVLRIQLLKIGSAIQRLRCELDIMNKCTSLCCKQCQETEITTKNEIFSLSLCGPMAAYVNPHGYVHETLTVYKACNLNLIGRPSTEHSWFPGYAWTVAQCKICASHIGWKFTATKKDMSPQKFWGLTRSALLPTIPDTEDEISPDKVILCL
T7 sequence (Q16531 whole entry partner): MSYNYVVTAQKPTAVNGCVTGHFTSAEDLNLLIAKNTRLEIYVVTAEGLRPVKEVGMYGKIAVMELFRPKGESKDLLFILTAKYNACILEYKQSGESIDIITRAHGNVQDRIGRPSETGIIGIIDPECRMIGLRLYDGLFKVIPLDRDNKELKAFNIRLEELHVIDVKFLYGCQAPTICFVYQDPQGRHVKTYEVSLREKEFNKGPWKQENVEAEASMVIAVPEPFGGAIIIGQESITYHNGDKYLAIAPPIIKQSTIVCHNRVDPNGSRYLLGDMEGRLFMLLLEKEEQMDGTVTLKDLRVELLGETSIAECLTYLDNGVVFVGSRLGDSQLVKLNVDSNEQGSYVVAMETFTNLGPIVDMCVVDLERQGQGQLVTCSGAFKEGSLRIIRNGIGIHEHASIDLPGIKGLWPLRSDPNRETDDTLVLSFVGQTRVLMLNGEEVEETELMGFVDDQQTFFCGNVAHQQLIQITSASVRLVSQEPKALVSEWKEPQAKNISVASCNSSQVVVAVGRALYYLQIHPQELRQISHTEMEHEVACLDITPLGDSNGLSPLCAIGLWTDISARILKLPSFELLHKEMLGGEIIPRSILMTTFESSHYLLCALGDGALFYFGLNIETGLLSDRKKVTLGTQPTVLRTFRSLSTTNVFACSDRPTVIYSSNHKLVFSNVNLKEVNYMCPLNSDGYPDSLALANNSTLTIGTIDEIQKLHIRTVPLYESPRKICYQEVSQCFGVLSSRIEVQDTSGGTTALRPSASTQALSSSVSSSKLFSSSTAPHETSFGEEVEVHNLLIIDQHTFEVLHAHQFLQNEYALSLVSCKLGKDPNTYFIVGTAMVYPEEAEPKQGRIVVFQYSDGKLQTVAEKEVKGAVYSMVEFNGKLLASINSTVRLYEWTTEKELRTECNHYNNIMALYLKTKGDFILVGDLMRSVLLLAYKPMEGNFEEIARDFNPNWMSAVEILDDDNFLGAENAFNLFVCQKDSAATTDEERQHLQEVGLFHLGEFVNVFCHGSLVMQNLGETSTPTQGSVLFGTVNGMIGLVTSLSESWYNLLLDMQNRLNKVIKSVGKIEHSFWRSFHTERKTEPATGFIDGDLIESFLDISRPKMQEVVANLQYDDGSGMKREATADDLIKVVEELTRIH

T2 sequence (Q13422 whole entry): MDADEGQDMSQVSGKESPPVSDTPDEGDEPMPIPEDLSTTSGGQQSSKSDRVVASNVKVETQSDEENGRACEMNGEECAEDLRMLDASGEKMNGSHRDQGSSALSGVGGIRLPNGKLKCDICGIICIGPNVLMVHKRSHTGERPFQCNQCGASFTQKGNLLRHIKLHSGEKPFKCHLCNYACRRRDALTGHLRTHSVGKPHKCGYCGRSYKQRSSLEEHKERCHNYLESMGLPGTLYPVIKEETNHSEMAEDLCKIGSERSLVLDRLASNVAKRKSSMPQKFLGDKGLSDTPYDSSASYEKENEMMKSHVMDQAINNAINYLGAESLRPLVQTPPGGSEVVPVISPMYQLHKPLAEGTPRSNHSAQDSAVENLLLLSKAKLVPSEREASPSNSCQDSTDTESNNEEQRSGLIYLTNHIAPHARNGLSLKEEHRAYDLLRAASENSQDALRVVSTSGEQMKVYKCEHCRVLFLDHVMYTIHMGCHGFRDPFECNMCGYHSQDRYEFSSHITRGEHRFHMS
T2 sequence (Q96SW2 whole entry): as the sequence (Q96SW2 whole entry) above
T2 sequence (Q16531 whole entry partner): as the sequence (Q16531 whole entry partner) above
T6 sequence (P30291 whole entry): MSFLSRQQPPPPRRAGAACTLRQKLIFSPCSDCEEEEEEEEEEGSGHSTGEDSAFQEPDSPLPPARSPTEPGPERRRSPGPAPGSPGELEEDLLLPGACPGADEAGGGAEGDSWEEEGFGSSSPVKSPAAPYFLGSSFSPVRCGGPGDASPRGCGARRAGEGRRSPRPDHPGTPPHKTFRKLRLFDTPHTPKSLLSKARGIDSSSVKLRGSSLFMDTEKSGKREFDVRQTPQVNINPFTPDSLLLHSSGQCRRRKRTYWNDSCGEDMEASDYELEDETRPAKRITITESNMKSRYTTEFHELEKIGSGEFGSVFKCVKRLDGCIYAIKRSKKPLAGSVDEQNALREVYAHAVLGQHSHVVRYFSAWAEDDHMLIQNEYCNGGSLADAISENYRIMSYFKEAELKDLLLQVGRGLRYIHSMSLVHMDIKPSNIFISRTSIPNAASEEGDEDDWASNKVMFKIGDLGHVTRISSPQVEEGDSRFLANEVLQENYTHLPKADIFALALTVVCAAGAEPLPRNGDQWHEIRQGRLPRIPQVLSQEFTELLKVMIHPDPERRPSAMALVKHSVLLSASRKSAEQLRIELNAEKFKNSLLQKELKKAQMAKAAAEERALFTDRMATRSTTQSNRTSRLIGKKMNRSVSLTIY
T6 sequence (Q96SW2 whole entry): as the sequence (Q96SW2 whole entry) above
T6 sequence (Q16531 whole entry partner): as the sequence (Q16531 whole entry partner) above
T4 sequence (Q9UKS7 whole entry): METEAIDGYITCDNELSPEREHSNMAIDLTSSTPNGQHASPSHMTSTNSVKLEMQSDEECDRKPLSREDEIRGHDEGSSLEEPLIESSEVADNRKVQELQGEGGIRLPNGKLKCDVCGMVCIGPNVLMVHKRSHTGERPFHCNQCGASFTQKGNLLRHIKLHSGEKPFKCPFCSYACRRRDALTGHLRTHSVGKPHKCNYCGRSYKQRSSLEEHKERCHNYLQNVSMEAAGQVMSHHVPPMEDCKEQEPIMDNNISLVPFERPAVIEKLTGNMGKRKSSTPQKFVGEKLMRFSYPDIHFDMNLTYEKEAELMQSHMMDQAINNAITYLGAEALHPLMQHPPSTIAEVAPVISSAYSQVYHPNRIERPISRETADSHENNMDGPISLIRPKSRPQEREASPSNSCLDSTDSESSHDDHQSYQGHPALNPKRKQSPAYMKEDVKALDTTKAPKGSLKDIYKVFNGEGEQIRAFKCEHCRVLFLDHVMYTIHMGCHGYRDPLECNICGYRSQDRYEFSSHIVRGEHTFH
T4 sequence (Q96SW2 whole entry): as the sequence (Q96SW2 whole entry) above
T4 sequence (Q16531 whole entry partner): as the sequence (Q16531 whole entry partner) above
T1 sequence (Q96SW2 whole entry): as the sequence (Q96SW2 whole entry) above
T3 sequence (P15170 whole entry): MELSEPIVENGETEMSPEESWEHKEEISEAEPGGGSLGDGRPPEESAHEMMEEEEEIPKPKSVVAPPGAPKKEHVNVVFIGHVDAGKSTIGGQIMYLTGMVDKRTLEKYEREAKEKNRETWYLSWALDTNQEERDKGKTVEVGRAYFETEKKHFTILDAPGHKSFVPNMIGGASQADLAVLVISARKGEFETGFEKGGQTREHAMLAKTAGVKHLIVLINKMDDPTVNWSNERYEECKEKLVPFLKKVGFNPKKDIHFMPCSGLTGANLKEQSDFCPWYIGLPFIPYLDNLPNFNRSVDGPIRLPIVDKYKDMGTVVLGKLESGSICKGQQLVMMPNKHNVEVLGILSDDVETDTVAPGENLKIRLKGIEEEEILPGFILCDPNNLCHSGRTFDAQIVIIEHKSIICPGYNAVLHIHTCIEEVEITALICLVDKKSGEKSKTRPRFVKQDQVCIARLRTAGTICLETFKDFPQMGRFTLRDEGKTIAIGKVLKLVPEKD
T3 sequence (Q96SW2 whole entry): as the sequence (Q96SW2 whole entry) above
T3 sequence (Q16531 whole entry partner): as the sequence (Q16531 whole entry partner) above

Compound: O=C1CCC(N2Cc3cc(CN4CCN(c5nc6c(c(N7CCNCC7)n5)SCC6)CC4)ccc3C2=O)C(=O)N1 (centres unmarked) [GT-04720, 3-(1-oxo-5-((4-(4-(piperazin-1-yl)-6,7-dihydrothieno[3,2-d]pyrimidin-2-yl)piperazin-1-yl)methyl)isoindolin-2-yl)piperidine-2,6-dione]
IC50 [1]: < 500 nM

Compound: O=C1CCC(N2Cc3cc(CN4CCC(c5noc6cc(F)ccc56)CC4)cc(F)c3C2=O)C(=O)N1 (centres unmarked) [GT-04767, 3-(7-fluoro-5-((4-(6-fluorobenzo[d]isoxazol-3-yl)piperidin-1-yl)methyl)-1-oxoisoindolin-2-yl)piperidine-2,6-dione]
IC50 [1]: 500 to 1000 nM

Compound: O=C1CCC(N2Cc3ccc(CN4CCC(c5noc6cc(F)ccc56)CC4)cc3C2=O)C(=O)N1 (centres unmarked) [GT-04768, 3-(6-((4-(6-fluorobenzo[d]isoxazol-3-yl)piperidin-1-yl)methyl)-1-oxoisoindolin-2-yl)piperidine-2,6-dione]
IC50 [1]: 1500 to 1900 nM

Compound: O=C1CCC(N2C(=O)c3ccc(CN4CCN(c5nc(Cl)nc6c5SCC6)CC4)cc3C2=O)C(=O)N1 (centres unmarked) [GT-06710, 5-((4-(2-chloro-6,7-dihydrothieno[3,2-d]pyrimidin-4-yl)piperazin-1-yl)methyl)-2-(2,6-dioxopiperidin-3-yl)isoindoline-1,3-dione]
IKZF 1 substrate protein remaining % (IKZF1): B (80%< substrate protein remaining %≤ 100%)
GSPT1 substrate protein remaining % (GSPT1): A (0% ≤ substrate protein remaining % ≤ 80%)
IKZF2 substrate protein remaining % (IKZF2): A (0% ≤ substrate protein remaining % ≤ 80%)
CK1a substrate protein remaining % (CK1α): B (80%< substrate protein remaining %≤ 100%)
Weel substrate protein remaining % (WEE1): B (80%< substrate protein remaining %≤ 100%)
IKZF3 substrate protein remaining % (IKZF3): B (80%< substrate protein remaining %≤ 100%)

Compound: O=C1CCC(N2C(=O)c3ccc(CN4CCc5sccc5C4)cc3C2=O)C(=O)N1 (centres unmarked) [GT-06762, 5-((6,7-dihydrothieno[3,2-c]pyridin-5(4H)-yl)methyl)-2-(2,6-dioxopiperidin-3-yl)isoindoline-1,3-dione]
IKZF 1 substrate protein remaining % (IKZF1): A (0% ≤ substrate protein remaining % ≤ 80%)
GSPT1 substrate protein remaining % (GSPT1): B (80%< substrate protein remaining %≤ 100%)
IKZF2 substrate protein remaining % (IKZF2): B (80%< substrate protein remaining %≤ 100%)
CK1a substrate protein remaining % (CK1α): A (0% ≤ substrate protein remaining % ≤ 80%)
Weel substrate protein remaining % (WEE1): A (0% ≤ substrate protein remaining % ≤ 80%)
IKZF3 substrate protein remaining % (IKZF3): B (80%< substrate protein remaining %≤ 100%)

Compound: O=C1CCC(N2C(=O)c3ccc(CN4CCN(c5nsc6ccccc56)CC4)cc3C2=O)C(=O)N1 (centres unmarked) [GT-06763, 5-((4-(benzo[d]isothiazol-3-yl)piperazin-1-yl)methyl)-2-(2,6-dioxopiperidin-3-yl)isoindoline-1,3-dione]
IKZF 1 substrate protein remaining % (IKZF1): A (0% ≤ substrate protein remaining % ≤ 80%)
GSPT1 substrate protein remaining % (GSPT1): A (0% ≤ substrate protein remaining % ≤ 80%)
IKZF2 substrate protein remaining % (IKZF2): B (80%< substrate protein remaining %≤ 100%)
CK1a substrate protein remaining % (CK1α): A (0% ≤ substrate protein remaining % ≤ 80%)
Weel substrate protein remaining % (WEE1): A (0% ≤ substrate protein remaining % ≤ 80%)
IKZF3 substrate protein remaining % (IKZF3): B (80%< substrate protein remaining %≤ 100%)

Compound: O=C1CCC(N2C(=O)c3ccc(CN4CCN(Cc5ccc(C67CC8CC(CC(C8)C6)C7)cc5)CC4)cc3C2=O)C(=O)N1 (centres unmarked) [GT-06810, 5-((4-(4-((3r,5r,7r)-adamantan-1-yl)benzyl)piperazin-1-yl)methyl)-2-(2,6-dioxopiperidin-3-yl)isoindoline-1,3-dione]
IKZF 1 substrate protein remaining % (IKZF1): A (0% ≤ substrate protein remaining % ≤ 80%)
GSPT1 substrate protein remaining % (GSPT1): A (0% ≤ substrate protein remaining % ≤ 80%)
IKZF2 substrate protein remaining % (IKZF2): A (0% ≤ substrate protein remaining % ≤ 80%)
CK1a substrate protein remaining % (CK1α): A (0% ≤ substrate protein remaining % ≤ 80%)
Weel substrate protein remaining % (WEE1): B (80%< substrate protein remaining %≤ 100%)
IKZF3 substrate protein remaining % (IKZF3): A (0% ≤ substrate protein remaining % ≤ 80%)

Compound: O=C1CCC(N2C(=O)c3ccc(CN4CCCC(C5CCNCC5)C4)cc3C2=O)C(=O)N1 (centres unmarked) [GT-06881, 5-([3,4'-bipiperidin]-1-ylmethyl)-2-(2,6-dioxopiperidin-3-yl)isoindoline-1,3-dione]
IKZF 1 substrate protein remaining % (IKZF1): B (80%< substrate protein remaining %≤ 100%)
GSPT1 substrate protein remaining % (GSPT1): A (0% ≤ substrate protein remaining % ≤ 80%)
IKZF2 substrate protein remaining % (IKZF2): B (80%< substrate protein remaining %≤ 100%)
CK1a substrate protein remaining % (CK1α): A (0% ≤ substrate protein remaining % ≤ 80%)
Weel substrate protein remaining % (WEE1): B (80%< substrate protein remaining %≤ 100%)
IKZF3 substrate protein remaining % (IKZF3): B (80%< substrate protein remaining %≤ 100%)

Compound: O=C1CCC(N2C(=O)c3ccc(CNC45CC6CC(CC(C6)C4)C5)cc3C2=O)C(=O)N1 (centres unmarked) [GT-06912, 5-((((3s,5s,7s)-adamantan-1-yl)amino)methyl)-2-(2,6-dioxopiperidin-3-yl)isoindoline-1,3-dione]
IKZF 1 substrate protein remaining % (IKZF1): A (0% ≤ substrate protein remaining % ≤ 80%)
GSPT1 substrate protein remaining % (GSPT1): A (0% ≤ substrate protein remaining % ≤ 80%)
IKZF2 substrate protein remaining % (IKZF2): A (0% ≤ substrate protein remaining % ≤ 80%)
CK1a substrate protein remaining % (CK1α): A (0% ≤ substrate protein remaining % ≤ 80%)
Weel substrate protein remaining % (WEE1): A (0% ≤ substrate protein remaining % ≤ 80%)
IKZF3 substrate protein remaining % (IKZF3): B (80%< substrate protein remaining %≤ 100%)

Compound: O=C1CCC(N2C(=O)c3ccc(CN4CCN(c5cnccn5)CC4)cc3C2=O)C(=O)N1 (centres unmarked) [GT-07060, 2-(2,6-dioxopiperidin-3-yl)-5-((4-(pyrazin-2-yl)piperazin-1-yl)methyl)isoindoline-1,3-dione]
IKZF 1 substrate protein remaining % (IKZF1): A (0% ≤ substrate protein remaining % ≤ 80%)
GSPT1 substrate protein remaining % (GSPT1): A (0% ≤ substrate protein remaining % ≤ 80%)
IKZF2 substrate protein remaining % (IKZF2): A (0% ≤ substrate protein remaining % ≤ 80%)
CK1a substrate protein remaining % (CK1α): A (0% ≤ substrate protein remaining % ≤ 80%)
Weel substrate protein remaining % (WEE1): A (0% ≤ substrate protein remaining % ≤ 80%)
IKZF3 substrate protein remaining % (IKZF3): A (0% ≤ substrate protein remaining % ≤ 80%)

Compound: O=C1CCC(N2C(=O)c3ccc(CN4CCN(c5cccnn5)CC4)cc3C2=O)C(=O)N1 (centres unmarked) [GT-07844, 2-(2,6-dioxopiperidin-3-yl)-5-((4-(pyridazin-3-yl)piperazin-1-yl)methyl)isoindoline-1,3-dione]
IKZF 1 substrate protein remaining % (IKZF1): A (0% ≤ substrate protein remaining % ≤ 80%)
GSPT1 substrate protein remaining % (GSPT1): B (80%< substrate protein remaining %≤ 100%)
IKZF2 substrate protein remaining % (IKZF2): B (80%< substrate protein remaining %≤ 100%)
CK1a substrate protein remaining % (CK1α): B (80%< substrate protein remaining %≤ 100%)
Weel substrate protein remaining % (WEE1): B (80%< substrate protein remaining %≤ 100%)
IKZF3 substrate protein remaining % (IKZF3): A (0% ≤ substrate protein remaining % ≤ 80%)

Continued, values first:

IC50 [1]: < 500 nM
Compound: O=C1CCC(N2Cc3cc(CN4CCN(c5ccnc(Cl)c5)CC4)ccc3C2=O)C(=O)N1 (centres unmarked) [GT-04435, 3-(5-((4-(2-chloropyridin-4-yl)piperazin-1-yl)methyl)-1-oxoisoindolin-2-yl)piperidine-2,6-dione]

IC50 [1]: < 500 nM
Compound: O=C1CCC(N2Cc3cc(CN4CCN(c5c(Cl)cncc5Cl)CC4)ccc3C2=O)C(=O)N1 (centres unmarked) [GT-04436, 3-(5-((4-(3,5-dichloropyridin-4-yl)piperazin-1-yl)methyl)-1-oxoisoindolin-2-yl)piperidine-2,6-dione]

IC50 [1]: 500 to 1000 nM
Compound: O=C1CCC(N2Cc3cc(CN4CCN(c5nc(Cl)nc6c5SCC6)CC4)ccc3C2=O)C(=O)N1 (centres unmarked) [GT-04683, 3-(5-((4-(2-chloro-6,7-dihydrothieno[3,2-d]pyrimidin-4-yl)piperazin-1-yl)methyl)-1-oxoisoindolin-2-yl)piperidine-2,6-dione]

IC50 [1]: 500 to 1000 nM
Compound: O=C1CCC(N2Cc3cc(CN4CCN(c5c(Cl)ccnc5Cl)CC4)ccc3C2=O)C(=O)N1 (centres unmarked) [GT-04896, 3-(5-((4-(2,4-dichloropyridin-3-yl)piperazin-1-yl)methyl)-1-oxoisoindolin-2-yl)piperidine-2,6-dione]

IC50 [1]: < 500 nM
Compound: Cc1nc(N2CCN(Cc3ccc4c(c3)CN(C3CCC(=O)NC3=O)C4=O)CC2)c2c(-c3ccccc3)csc2n1 (centres unmarked) [GT-05100, 3-(5-((4-(2-methyl-5-phenylthieno[2,3-d]pyrimidin-4-yl)piperazin-1-yl)methyl)-1-oxoisoindolin-2-yl)piperidine-2,6-dione]
